From US20070270409A1, “Medicament for Preventing and/or Treating Ischemic Cardiovascular Disease” (Mitsubishi Pharma Corporation, priority 2004, published 2007)

System: patients with anterior ST-segment elevation myocardial infarction undergoing PCI
Assay: Clinical study of caldaret in patients undergoing PCI: SPECT measurements and cardiac serum markers
Type: in vivo
Conditions: for Infarct size (% of the left ventricle): continuous intravenous 48 hours started about 30 minutes before PCI; for Infarct size (% of the left ventricle) / EDV (left ventricular end-diastolic volume) / ESV (left ventricular end-systolic volume) / LVEF (left ventricular ejection fraction): SPECT at day 7; for Infarct size (% of the left ventricle) / Serum marker CK / Serum marker TnT / EDV (left ventricular end-diastolic volume) / ESV (left ventricular end-systolic volume) / LVEF (left ventricular ejection fraction): TIMI flow grade 0 or 1; for Serum marker CK / Serum marker TnT / EDV (left ventricular end-diastolic volume) / ESV (left ventricular end-systolic volume) / LVEF (left ventricular ejection fraction): continuous intravenous 48 hours; for Serum marker CK: AUC of CK at days 0 to 3; for Serum marker TnT: AUC of TnT at days 0 to 5
Experimental: Three hundred and eighty-seven patients with ΣST elevation of 10 mm or more undergoing PCI were divided into 3 groups: a caldaret non-administration group; a 61.5 mg caldaret administration group (57.5 mg in terms of 5-methyl-2-(1-piperazinyl)benzenesulfonic acid) (low-dose group); and a 184.6 mg caldaret administration group (172.5 mg in terms of 5-methyl-2-(1-piperazinyl)benzenesulfonic acid) (high-dose group). To these patients, administration of placebo (the caldaret non-administration group) or caldaret (the low-dose group and the high-dose group) was initiated about 30 minutes before PCI was performed. Placebo or caldaret was continuously administered intravenously for 48 hours. At day 7 after administration (the initiation day of adminstration=day 0 after administration, and hereinafter the same), the infarct size, the left ventricular end-systolic volume (ESV), the left ventricular end-diastolic volume (EDV) and the left ventricular ejection fraction (LVEF) were measured by SPECT and the cardiac serum markers were measured. Incidentally, as for the serum markers, AUC of TnT at days 0 to 5 after administration and AUC of CK at days 0 to 3 after administration were measured.
Hereinafter, the measurement results in 247 patients with TIMI flow grade 0 or 1 diagnosed with anterior ST-segment elevation myocardial infarction (88 patients in the low-dose group, 70 patients in the high-dose group and 89 patients in the caldaret non-administration group) are shown.

[1] = high-dose group, 184.6 mg caldaret
[2] = low-dose group, 61.5 mg caldaret

Cc1ccc(N2CCNCC2)c(S(=O)(=O)O)c1.O [caldaret, 5-methyl-2-(1-piperazinyl)benzenesulfonic acid monohydrate]
All the measurement parameters compared with the non-administration group (359 patients with anterior ST-segment elevation myocardial infarction regardless of the TIMI flow grade, low-dose and high-dose groups): improving tendency
Infarct size (% of the left ventricle) [1]: 25.7 (b) % of the left ventricle
Serum marker CK [1]: 1157 (*) IU/I
Serum marker TnT [1]: 4.3 mg/L
EDV (left ventricular end-diastolic volume) [1]: 134.1 mL
ESV (left ventricular end-systolic volume) [1]: 78.0 mL
LVEF (left ventricular ejection fraction) [1]: 38.1 (*) %
Infarct size (% of the left ventricle) [2]: 24.4 (a) % of the left ventricle
Serum marker CK [2]: 1144 (*) IU/I
Serum marker TnT [2]: 5 mg/L
EDV (left ventricular end-diastolic volume) [2]: 138.4 mL
ESV (left ventricular end-systolic volume) [2]: 80.7 mL
LVEF (left ventricular ejection fraction) [2]: 36.6%
Effect on myocardial injury and myocardial function (patient with anterior ST-segment elevation myocardial infarction undergoing percutaneous coronary intervention, overall conclusion): can alleviate myocardial injury and preserve myocardial function
